Reference: patent publication US20260232758A1, “Low Cost Efficient Intracellular Delivery of Proteins and Nucleic Acids via Hydrophobic Ion Pairing” (Georgia Tech Research Corporation, priority 2023, published 2026)

Key:
red blood cells = assay: Hemolytic activity assay (hemoglobin release from red blood cells); type: cell-based
Experimental: FIG. 7 provides hemolytic activity for Cytochrome C, OA, SD, HIP CytC OA, and HIP CytC SD at 37° C. and 4° C. to show the influence of membrane stiffness on membrane interaction, in accordance with some embodiments of the present disclosure. 20 μM CytC was given to each group and the concentration of counterion given was consistent with the charge ratios used for delivery experiments. Washed red blood cells were diluted to 0.5% v/v in PBS and 1% v/v Triton X-100 was used as the positive control.
Washed red blood cells (RBC's) were diluted to a 5% v/v concentration in PBS. 100 μL of nanoparticles or treatment were incubated with 10 μL RBC's at 37° C. for 1 hour in a 96 well plate. After incubation with HIP treatment groups, the microplate reader was used to measure released hemoglobin from membrane disruption using 541 nm and subtracting background at 561 nm, then normalizing hemolytic activity to 5% Triton X-100. For imaging RBC's and NIH3T3/eGFP cells, an epifluorescent microscope (Zeiss Axio Observer Z1) with an 40× lens. […]

[1] = Dynamic light scattering: z-average size and polydispersity of HIP complexes; type: physicochemical; conditions: DLS
Experimental: Size and zeta potential were measured using dynamic light scattering (DLS) using Malvern Instruments Zetasizer NanoZS intensity mode with a 4 mW He—Ne laser with 633 nm wavelength to detect backscattering) (173° using 1× for DLS or 0.1× PBS for zeta potential at pH 7.4 solvent conditions and protein material selection. Z-average values were used for HIP complex size. Electrophoretic mobility was converted to zeta potential using the Smoluchowski approximation. Imaging of solutions was performed using an epifluorescence microscope (Zeiss Axio Observer Z1) using a 100× oil immersion lens. Transmission electron microscopy (TEM) grids were prepared using 10 μL sample on copper grids, letting the sample adhere for 5 minutes, washing in water for 30 seconds, staining with 1% phosphotungstic acid for 10 seconds, washing again for 30 seconds, and drying overnight. A JEOL 100 CX-II TEM was utilized to visualize samples.

[2] = cited from earlier work

Molecule | relative hemolytic activity (red blood cells; 37° C., same concentration as in HIP CytC complexes) | polydispersity index (PDI) [1] | z-average hydrodynamic diameter ([1]; 1× PBS pH 7.4) | Log P [2] | hemolytic activity at reduced temperature (red blood cells; 4° C. compared with 37° C.)
CytC: 12.4 kDa positively charged protein; induces apoptosis upon delivery to the mitochondrial membrane | greater than 100% | 0.542±0.17 | 729±460 nm |  | 
c1ccc(CCNCc2ccccc2)cc1 [benethamine, N-benzyl-2-phenylthanamine] |  |  |  | 3.6 | 
CCCCC(CC)COC(=O)CC(C(=O)OCC(CC)CCCC)S(=O)(=O)[O-].[Na+] (stereo not drawn) [sodium docusate, reference compound] |  |  |  | 5.2 | remained high
